{"source": "patent US20220155322A1", "about": "“USE OF NATRIURETIC PEPTIDES TO ASSESS AND TREAT ACUTE KIDNEY INJURY” (Mayo Foundation for Medical Education and Research, priority 2019, published 2022)", "format_in_all_cases": "cell-based", "key": {"[1]": {"test_system": "human primary renal proximal tubular epithelial cells (HRPTC)", "experiment": "Oil immersion induced hypoxia/reoxygenation (H/R) apoptosis, Caspase 3/7 IncuCyte live imaging", "procedure": "Oil Immersion Induced Hypoxia/Reoxygenation in vitro: HRPTC (ScienCell Research Laboratories; Carlsbad, Calif.) were seeded in 96-well plates and cultured for 1 day until 70-80% confluence. Passages 3-5 were used for experiments. Caspase 3/7 green apoptosis assay agent (Essen BioScience; Ann Arbor, Mich.) was added to the culture medium for detection of apoptosis. Plates were then transferred to a time-lapsed, live imaging system IncuCyte (Essen BioScience) for apoptosis monitoring for a total of 24 hours. H/R in cells was mimicked with mineral oil (Sigma, St Louis, Mo.) immersion (Meldrum et al., J Surg Res, 99:288-293, 2001). Cells were immersed in oil for 2 hours, washed twice, and placed in fresh medium containing vehicle (H/R group) or drugs. ANP, BNP, and CRRL269 were used at concentrations of 10^−8, 10^−7, or 10^−6 M. PKG (an important cGMP binding protein) activating analogue 8-pCPT-cGMP (Sigma; St. Louis, Mo.), which is specific for PKG and has low affinity for phosphodiesterases, was used at concentrations of 10^−6, 10^−5, or 10^−4 M. Cells were treated with 10^−6-, 5×10^−6-, or 1.5×10^−5 M PKG inhibitor KT-5823 (Abcam; Cambridge, Mass.) for 30 minutes before 10^−6 M CRRL269 was added. Cells without H/R stimulation were labeled as the negative control (Neg Ctrl) group. Apoptosis signals (e.g., apoptosis object counts) were analyzed with software provided by IncuCyte."}, "[2]": {"test_system": "human primary aortic vascular smooth muscle cells (HASMC)", "experiment": "Intracellular calcium under ANGII stimulation (Fura-2)", "settings": "pretreatment at 10^−9 or 10^−7 M for 5 minutes, ANGII 10^−8 or 10^−7 M", "procedure": "Measurements of Intracellular Calcium in Vascular Smooth Muscle Cells: HASMC (ScienCell Research Laboratories; Carlsbad, Calif.) were cultured and maintained as instructed by the manufacturer. Cells at passage 4 or 5 were used for experiments. Calcium imaging was performed as described elsewhere (Chai et al., Cardiovasc Res, 100:151-159, 2013). Briefly, cells were seeded on a 25 mm round cover glass (Fisher Scientific; Pittsburgh, Pa.) at a density of 5×10^4 cells per slide. The slides had been pretreated with 0.5 N NaOH for 8 hours, rinsed with water, and sterilized before use. After overnight culturing, the slides with cells were assembled in a MS-02 Chamber (ALA Scientific Instrument; Farmingdale, N.Y.) and loaded with 3 μM fura-2 AM (Invitrogen; Carlsbad, Calif.) for 30 minutes in a 37° C. incubator. The chamber was then placed on the stage of an inverted Olympus IX71 microscope (Olympus America Inc.; Waltham, Mass.). The cells were maintained in 1 mL HASMC medium and treated with or without ANP, BNP, or CRRL269 at concentration of 10^−9 or 10^−7 M for 5 minutes before perfused with 5 mL medium containing ANGII (10^−8 or 10^−7 M). Intracellular Ca2^+ fluorescence signals were measured as a ratio of fluorescence intensities at 510 nm from excitations of 340/380 nm, using a Hamamatsu ORCA-R2 CCD camera with a Sutter LB-LS/17 light source. Baseline fluorescence was recorded after 5 minutes of treatment, and fluorescence images were acquired continuously during the ANGII perfusion. Background fluorescence was subtracted and the calcium signal (F) was normalized to baseline fluorescence (FO) and expressed as a ratio (F/FO) using MetaFluor software (Olympus America Inc.)."}, "[3]": {"test_system": "human renal fibroblasts (HRF)", "experiment": "Human renal fibroblast proliferation by cell counting", "settings": "CNP at 10^−7 M every 24 hours, cell count at 72 hours", "procedure": "Human Renal Fibroblasts Proliferation by Cell Counting: Human renal fibroblasts (HRF, Cell Biologics; Chicago, Ill.) were counted and seeded into 48-well plates with complete medium, and then incubated at 37° C., 5% CO2 overnight. The culture medium was replaced with fresh medium containing PBS or CNP at concentrations of 10^−8 or 10^−7 M, and cells were cultured for 72 hours. Fresh CNP was added at 24 and 48 hours. At 72 hours, HRF were trypsinized, stained with 0.2% trypan blue, and counted using a Cedex XS Analyzer (Roche; Indianapolis, Ind.)."}}}
{"compound": "Nc1nc2c(nc(Sc3ccc(Cl)cc3)n2C2O[C@@H]3COP(=O)(O)O[C@H]3[C@H]2O)c(=O)[nH]1", "note": "(stereo in doubt) [8-pCPT-cGMP, reference compound]", "values": [{"measurement": "apoptosis inhibition in HRPTC after H/R", "setting": "[1]; 8-pCPT-cGMP at 10^−6 and 10^−5 M", "result": "mimicked the apoptosis inhibition"}]}
{"compound": "CC[C@H](C)[C@@H]1NC(=O)[C@H](CCCNC(=N)N)NC(=O)[C@H](CC(=O)O)NC(=O)[C@H](CCSC)NC(=O)[C@H](CCCNC(=N)N)NC(=O)CNC(=O)CNC(=O)[C@H](Cc2ccccc2)NC(=O)[C@@H](NC(=O)[C@H](CO)NC(=O)[C@H](CO)NC(=O)[C@H](CCCNC(=N)N)NC(=O)[C@H](CCCNC(=N)N)NC(=O)[C@H](CC(C)C)NC(=O)[C@@H](N)CO)CSSC[C@@H](C(=O)N[C@@H](CC(N)=O)C(=O)N[C@@H](CO)C(=O)N[C@@H](Cc2ccccc2)C(=O)N[C@@H](CCCNC(=N)N)C(=O)N[C@@H](Cc2ccc(O)cc2)C(=O)O)NC(=O)CNC(=O)[C@H](CC(C)C)NC(=O)CNC(=O)[C@H](CO)NC(=O)[C@H](CCC(N)=O)NC(=O)[C@H](C)NC(=O)CNC1=O", "note": "[ANP, atrial natriuretic peptide, reference compound]", "values": [{"measurement": "Ca2^+ enhancement by ANGII in HASMC", "setting": "[2]", "result": "suppressed"}]}
{"compound": "COC(=O)[C@@]1(OC)C[C@H]2O[C@]1(C)n1c3ccccc3c3c4c(c5c6ccccc6n2c5c31)C(=O)N(C)C4", "note": "[KT-5823, reference compound]", "values": [{"measurement": "effect on antiapoptotic effects induced by CRRL269", "setting": "[1]; HRPTC, H/R, KT-5823 30 minutes before 10^−6 M CRRL269", "result": "abrogated"}]}
{"compound": "B-type natriuretic peptide [BNP, reference compound]", "values": [{"measurement": "Ca2^+ enhancement by ANGII in HASMC", "setting": "[2]", "result": "suppressed"}]}
{"compound": "C-type natriuretic peptide (GLSKGCFGLKLDRIGSMSGLGC; listed as Homo sapiens) [CNP]", "values": [{"measurement": "human renal fibroblast (HRF) proliferation", "setting": "[3]", "result": "suppressed"}]}
